In ChEMBL document CHEMBL1143144, “Antitumor studies. Part 4: Design, synthesis, antitumor activity, and molecular docking study of novel 2-substituted 2-deoxoflavin-5-oxides, 2-deoxoalloxazine-5-oxides, and their 5-deaza analogs” (Bioorg Med Chem, 2008) one finds IC50 data, which are given here for 31 compounds.

The structures appear in SMILES notation. Converted amounts (≈) assume the structure as drawn.

The test system of test [1] is CCRF-HSB-2. Description: Antitumor activity against human CCRF-HSB2 cells by MTT assay. The format is functional, cell-based.
The test system of test [2] is KB. Description: Antitumor activity against human KB cells by MTT assay. The format is functional, cell-based.

Consider `COc1ccc2c(c1)[n+]([O-])c1c(=O)nc(N3CCCCC3)nc-1n2C`, for which the values for the IC50 in test [1] and in test [2] were 6.18 µg/mL (≈ 18.1 µM) and 27.6 µg/mL (≈ 80.9 µM), respectively.

Consider `CSc1nc2n(C)c3ccccc3[n+]([O-])c-2c(=O)n1`, for which the IC50 worked out at 1.56 µg/mL (≈ 5.69 µM) in test [1] and 1.44 µg/mL (≈ 5.25 µM) in test [2].

Consider `CSc1nc2nc3ccccc3[n+]([O-])c2c(=O)[nH]1`, for which the IC50 is 6.77 µg/mL (≈ 26 µM) in test [1] and 6.76 µg/mL (≈ 26 µM) in test [2].

As to `CSc1nc2nc3c(C)cc(C)cc3[n+]([O-])c2c(=O)n1C`, the half-maximal inhibitory concentration (IC50) was determined as 8.96 µg/mL (≈ 29.6 µM) in test [1] and 14.2 µg/mL (≈ 47 µM) in test [2].

For `Cn1c2nc(=O)[nH]c(=O)c-2nc2ccccc21`, the IC50 in test [1] was 1.8 µg/mL (≈ 7.89 µM); in test [2], 2.1 µg/mL (≈ 9.2 µM).

In the case of `Nc1ccn([C@@H]2O[C@H](CO)[C@@H](O)[C@@H]2O)c(=O)n1` [CYTARABINE], the half-inhibitory concentration (IC50) was found to be 0.047 µg/mL (≈ 0.193 µM) in test [1] and 0.23 µg/mL (≈ 0.946 µM) in test [2].

Consider `CCn1c2nc(=O)[nH]c(=O)c-2nc2ccccc21`, for which the values for the IC50 in test [1] and in test [2] were 1.57 µg/mL (≈ 6.48 µM) and 1.89 µg/mL (≈ 7.8 µM), respectively.

In the case of `CSc1nc2n(C)c3cc(C)c(C)cc3[n+]([O-])c-2c(=O)n1`, the IC50 in test [1] amounted to 14.3 µg/mL (≈ 47.3 µM); in test [2], 30 µg/mL (≈ 99.2 µM).

For `CCn1c2nc(NCC(C)C)nc(=O)c-2[n+]([O-])c2ccccc21`, the concentration for half-maximal inhibition (IC50) was 6 µg/mL (≈ 19.1 µM) in test [1] and 8.1 µg/mL (≈ 25.8 µM) in test [2].

As for `CCn1c2nc(SC)nc(=O)c-2[n+]([O-])c2ccccc21`, the IC50 in test [1] turned out to be 3.72 µg/mL (≈ 12.9 µM); in test [2], 8.19 µg/mL (≈ 28.4 µM).

With `COc1ccc2nc3nc(N4CCOCC4)[nH]c(=O)c3nc2c1`, the values for the IC50 in test [1] and in test [2] were 41.4 µg/mL (≈ 132 µM) and 71.7 µg/mL (≈ 229 µM), respectively.

`CN(C)c1nc2nc3ccccc3nc2c(=O)[nH]1`: the results for the concentration for half-maximal inhibition (IC50) in test [1] and in test [2] were 51.2 µg/mL (≈ 212 µM) and 63.1 µg/mL (≈ 262 µM), respectively.

Turning to `CNc1nc2n(C)c3ccccc3[n+]([O-])c-2c(=O)n1`, the values for the IC50 in test [1] and in test [2] were 1.74 µg/mL (≈ 6.76 µM) and 6.93 µg/mL (≈ 26.9 µM), respectively.

Consider `CSc1nc2nc3c(C)cc(C)cc3[n+]([O-])c2c(=O)[nH]1`, for which the IC50 was 6.29 µg/mL (≈ 21.8 µM) in test [1] and 11.8 µg/mL (≈ 40.9 µM) in test [2].

Turning to `CSc1nc2nc3ccccc3[n+]([O-])c2c(=O)n1C`, the figures for the IC50 in test [1] and in test [2] were 8.63 µg/mL (≈ 31.5 µM) and 9.31 µg/mL (≈ 33.9 µM), respectively.

In the case of `COc1ccc2c(c1)[n+]([O-])c1c(=O)[nH]c(=O)nc-1n2C`, the half-inhibitory concentration (IC50) in test [1] is 5.1 µg/mL (≈ 18.6 µM); in test [2] it was 6.2 µg/mL (≈ 22.6 µM).

As for `CCOC(=O)Cn1c(SC)nc2nc3ccccc3[n+]([O-])c2c1=O`, the concentration for half-maximal inhibition (IC50) in test [1] was determined as 34.2 µg/mL (≈ 98.7 µM); in test [2], 54.8 µg/mL (≈ 158 µM).

`COc1ccc2nc3nc(SC)[nH]c(=O)c3[n+]([O-])c2c1`: the half-maximal inhibitory concentration (IC50) in test [1] was determined as 4.11 µg/mL (≈ 14.2 µM); in test [2] it was 5.35 µg/mL (≈ 18.4 µM).

Turning to `CCn1c2nc(SC)nc(=O)c-2[n+]([O-])c2cc(C)ccc21`, the half-maximal inhibitory concentration (IC50) in test [1] was found to be 34.7 µg/mL (≈ 115 µM); in test [2], 46.3 µg/mL (≈ 153 µM).

For the compound `CSc1nc2n(C)c3ccc(C)cc3[n+]([O-])c-2c(=O)n1`, the values for the half-inhibitory concentration (IC50) in test [1] and in test [2] were 17.1 µg/mL (≈ 59.3 µM) and 27.7 µg/mL (≈ 96.1 µM), respectively.

`CNc1nc2n(C)c3ccccc3cc-2c(=O)n1`: the IC50 in test [1] amounted to 2.7 µg/mL (≈ 11.2 µM); in test [2], 14.5 µg/mL (≈ 60.3 µM).

On to `COc1ccc2c(c1)[n+]([O-])c1c(=O)nc(SC)nc-1n2C`, for which the results for the IC50 in test [1] and in test [2] were 9.84 µg/mL (≈ 32.3 µM) and 11 µg/mL (≈ 36.1 µM), respectively.

For the compound `CSc1nc2n(C)c3c(C)cccc3[n+]([O-])c-2c(=O)n1`, the IC50 in test [1] came out at 1.46 µg/mL (≈ 5.06 µM); in test [2], 0.61 µg/mL (≈ 2.12 µM).

For `CSc1nc2nc3ccccc3cc2c(=O)[nH]1`, the results for the IC50 in test [1] and in test [2] were 23.2 µg/mL (≈ 95.4 µM) and 44.1 µg/mL (≈ 181 µM), respectively.

With `Cc1ccc2c(c1)[n+]([O-])c1c(=O)nc(NCCO)nc-1n2C`, the IC50 in test [1] turned out to be 1.46 µg/mL (≈ 4.85 µM); in test [2] it was 1.7 µg/mL (≈ 5.64 µM).

For `CCn1c(SC)nc2nc3c(C)cc(C)cc3[n+]([O-])c2c1=O`, the IC50 in test [1] is 5.9 µg/mL (≈ 18.6 µM); in test [2] it was 10 µg/mL (≈ 31.6 µM).

For `CSc1nc2nc3ccc(C)cc3[n+]([O-])c2c(=O)n1C`, the IC50 turned out to be 7.74 µg/mL (≈ 26.8 µM) in test [1] and 13.4 µg/mL (≈ 46.5 µM) in test [2].

As for `COc1ccc2c(c1)n(C)c1nc(SC)nc(=O)c-1[n+]2[O-]`, the values for the IC50 in test [1] and in test [2] were 10 µg/mL (≈ 32.9 µM) and 12.5 µg/mL (≈ 41.1 µM), respectively.

Regarding `CSc1nc2n(C)c3ccc(Cl)cc3[n+]([O-])c-2c(=O)n1`, the values for the half-inhibitory concentration (IC50) in test [1] and in test [2] were 6.66 µg/mL (≈ 21.6 µM) and 10.8 µg/mL (≈ 35 µM), respectively.

For `Cc1ccc2c(c1)[n+]([O-])c1c(=O)nc(NC3CCCCC3)nc-1n2C`, the figures for the IC50 in test [1] and in test [2] were 7.1 µg/mL (≈ 20.9 µM) and 33.7 µg/mL (≈ 99.3 µM), respectively.

On to `CSc1nc2nc3ccc(C)cc3[n+]([O-])c2c(=O)[nH]1`, for which the results for the IC50 in test [1] and in test [2] were 5.86 µg/mL (≈ 21.4 µM) and 5.8 µg/mL (≈ 21.1 µM), respectively.
